Literature values, collected in EP4699692A1, “ACIDIC GAS ADSORBENT, STRUCTURE COMPRISING ACIDIC GAS ADSORBENT, ACIDIC GAS ADSORPTION DEVICE, AND ACIDIC GAS ADSORBENT PRODUCTION METHOD” (Nitto Denko Corporation, priority 2023, dated 2024).

Key:
[1] = amine monomer; regulatory class
[2] = amine monomer; regulatory class; remark: listed apart in the source
[3] = amine monomer
[4] = amine monomer; remark: listed apart in the source

## NCCNCCNCCN [TETA, triethylenetetramine]
[1]
  Fire Service Act: Hazardous material category IV class III petroleums
[2]
  Poisonous and Deleterious Substances Control Act: Deleterious substance
[3]
  Mutagenicity test (Ames test): Positive
[4]
  Skin irritation test (rabbit): Strong irritant
